According to patent US20150094474A1, “AGRICULTURAL CHEMICALS” (Redx Pharma Ltd., priority 2012, published 2015):

Key:
barley = experiment: Herbicidal bioassay, barley (% necrosis); assay type: in vivo
Procedure: (§1) A laboratory bioassay was conducted to screen ten compounds (Fluazifop (25); Ethyl fluazifop (62); five fluazifop analogues: 27, 28, 63, 64 and 65; mesofulfuron (6); and two mesosulfuron analogues: 8 and 61. for activity against Lolium perenne, barley, peas and Chinese cabbage. Compounds were diluted in DMSO. Controls were performed using both DMSO and water.
(§2) Plants were obtained as seeds and were grown to the 2-4 true leaf stage. Plants were grown individually in seed trays. Each plant (in an approximately 3 cm diameter plug) was then detached from the tray for spraying. Environmental conditions were closely monitored and recorded and were within the optimal range of the target species.
(§3) The compounds were screened at a range of six concentrations, eg. 0.05%, 0.01%, 0.005%, 0.001%, 0.0005% and 0.0001%. Treatments will be applied directly onto the plants, using a potter tower.
(§4) One plant of each type will be sprayed using a potter tower. The 4 different types of weeds will be placed in a 10 cm diameter area underneath the potter sprayer and sprayed simultaneously. The growth of the plants and any Phytotoxicity effects will then be assessed at specified growth intervals, according to EPPO guideline PP1/135. Five replicates will be performed for each treatment, for each species.

peas = experiment: Herbicidal bioassay, peas (% necrosis); assay type: in vivo
Procedure: as §1, §2, §3, §4

## COc1cc(OC)nc(NC(=O)NS(=O)(=O)c2cc(CNS(C)(=O)=O)ccc2CO)n1 [Compound 8, 1-(4,6-Dimethoxypyrimidin-2-yl)-3-[2-(hydroxymethyl)-5-(methanesulfonamidomethyl)phenyl]sulfonyl-urea]
barley; Dose 0.000001, Day 0
  Sum of % necrosis in barley: C (less than 50% necrosis)
barley; Dose 0.000001, Day 1
  Sum of % necrosis in barley: C (less than 50% necrosis)
barley; Dose 0.000001, Day 3
  Sum of % necrosis in barley: C (less than 50% necrosis)
barley; Dose 0.000001, Day 7
  Sum of % necrosis in barley: C (less than 50% necrosis)
barley; Dose 0.000001, Day 10
  Sum of % necrosis in barley: C (less than 50% necrosis)
barley; Dose 0.000001, Day 14
  Sum of % necrosis in barley: C (less than 50% necrosis)
barley; Dose 0.000005, Day 0
  Sum of % necrosis in barley: C (less than 50% necrosis)
barley; Dose 0.000005, Day 1
  Sum of % necrosis in barley: C (less than 50% necrosis)
barley; Dose 0.000005, Day 3
  Sum of % necrosis in barley: C (less than 50% necrosis)
barley; Dose 0.000005, Day 7
  Sum of % necrosis in barley: C (less than 50% necrosis)
barley; Dose 0.000005, Day 10
  Sum of % necrosis in barley: C (less than 50% necrosis)
barley; Dose 0.000005, Day 14
  Sum of % necrosis in barley: C (less than 50% necrosis)
barley; Dose 0.00001, Day 0
  Sum of % necrosis in barley: C (less than 50% necrosis)
barley; Dose 0.00001, Day 1
  Sum of % necrosis in barley: C (less than 50% necrosis)
barley; Dose 0.00001, Day 3
  Sum of % necrosis in barley: C (less than 50% necrosis)
barley; Dose 0.00001, Day 7
  Sum of % necrosis in barley: C (less than 50% necrosis)
barley; Dose 0.00001, Day 10
  Sum of % necrosis in barley: C (less than 50% necrosis)
barley; Dose 0.00001, Day 14
  Sum of % necrosis in barley: C (less than 50% necrosis)
barley; Dose 0.00005, Day 0
  Sum of % necrosis in barley: C (less than 50% necrosis)
barley; Dose 0.00005, Day 1
  Sum of % necrosis in barley: C (less than 50% necrosis)
barley; Dose 0.00005, Day 3
  Sum of % necrosis in barley: C (less than 50% necrosis)
barley; Dose 0.00005, Day 7
  Sum of % necrosis in barley: C (less than 50% necrosis)
barley; Dose 0.00005, Day 10
  Sum of % necrosis in barley: C (less than 50% necrosis)
barley; Dose 0.00005, Day 14
  Sum of % necrosis in barley: C (less than 50% necrosis)
barley; Dose 0.0001, Day 0
  Sum of % necrosis in barley: C (less than 50% necrosis)
barley; Dose 0.0001, Day 1
  Sum of % necrosis in barley: C (less than 50% necrosis)
barley; Dose 0.0001, Day 3
  Sum of % necrosis in barley: C (less than 50% necrosis)
barley; Dose 0.0001, Day 7
  Sum of % necrosis in barley: C (less than 50% necrosis)
barley; Dose 0.0001, Day 10
  Sum of % necrosis in barley: C (less than 50% necrosis)
barley; Dose 0.0001, Day 14
  Sum of % necrosis in barley: C (less than 50% necrosis)
barley; Dose 0.0005, Day 0
  Sum of % necrosis in barley: C (less than 50% necrosis)
barley; Dose 0.0005, Day 1
  Sum of % necrosis in barley: C (less than 50% necrosis)
barley; Dose 0.0005, Day 3
  Sum of % necrosis in barley: C (less than 50% necrosis)
barley; Dose 0.0005, Day 7
  Sum of % necrosis in barley: C (less than 50% necrosis)
barley; Dose 0.0005, Day 10
  Sum of % necrosis in barley: C (less than 50% necrosis)
barley; Dose 0.0005, Day 14
  Sum of % necrosis in barley: C (less than 50% necrosis)
peas; Dose 0.000001, Day 0
  Sum of % necrosis in Pea: C (less than 50% necrosis)
peas; Dose 0.000001, Day 1
  Sum of % necrosis in Pea: C (less than 50% necrosis)
peas; Dose 0.000001, Day 3
  Sum of % necrosis in Pea: B (50%-80% necrosis)
peas; Dose 0.000001, Day 7
  Sum of % necrosis in Pea: A (over 80% necrosis)
peas; Dose 0.000001, Day 10
  Sum of % necrosis in Pea: A (over 80% necrosis)
peas; Dose 0.000001, Day 14
  Sum of % necrosis in Pea: A (over 80% necrosis)
peas; Dose 0.000005, Day 0
  Sum of % necrosis in Pea: C (less than 50% necrosis)
peas; Dose 0.000005, Day 1
  Sum of % necrosis in Pea: C (less than 50% necrosis)
peas; Dose 0.000005, Day 3
  Sum of % necrosis in Pea: B (50%-80% necrosis)
peas; Dose 0.000005, Day 7
  Sum of % necrosis in Pea: B (50%-80% necrosis)
peas; Dose 0.000005, Day 10
  Sum of % necrosis in Pea: A (over 80% necrosis)
peas; Dose 0.000005, Day 14
  Sum of % necrosis in Pea: A (over 80% necrosis)
peas; Dose 0.00001, Day 0
  Sum of % necrosis in Pea: C (less than 50% necrosis)
peas; Dose 0.00001, Day 1
  Sum of % necrosis in Pea: C (less than 50% necrosis)
peas; Dose 0.00001, Day 3
  Sum of % necrosis in Pea: B (50%-80% necrosis)
peas; Dose 0.00001, Day 7
  Sum of % necrosis in Pea: A (over 80% necrosis)
peas; Dose 0.00001, Day 10
  Sum of % necrosis in Pea: A (over 80% necrosis)
peas; Dose 0.00001, Day 14
  Sum of % necrosis in Pea: A (over 80% necrosis)
peas; Dose 0.00005, Day 0
  Sum of % necrosis in Pea: C (less than 50% necrosis)
peas; Dose 0.00005, Day 1
  Sum of % necrosis in Pea: C (less than 50% necrosis)
peas; Dose 0.00005, Day 3
  Sum of % necrosis in Pea: B (50%-80% necrosis)
peas; Dose 0.00005, Day 7
  Sum of % necrosis in Pea: A (over 80% necrosis)
peas; Dose 0.00005, Day 10
  Sum of % necrosis in Pea: A (over 80% necrosis)
peas; Dose 0.00005, Day 14
  Sum of % necrosis in Pea: A (over 80% necrosis)
peas; Dose 0.0001, Day 0
  Sum of % necrosis in Pea: C (less than 50% necrosis)
peas; Dose 0.0001, Day 1
  Sum of % necrosis in Pea: C (less than 50% necrosis)
peas; Dose 0.0001, Day 3
  Sum of % necrosis in Pea: B (50%-80% necrosis)
peas; Dose 0.0001, Day 7
  Sum of % necrosis in Pea: A (over 80% necrosis)
peas; Dose 0.0001, Day 10
  Sum of % necrosis in Pea: A (over 80% necrosis)
peas; Dose 0.0001, Day 14
  Sum of % necrosis in Pea: A (over 80% necrosis)
peas; Dose 0.0005, Day 0
  Sum of % necrosis in Pea: C (less than 50% necrosis)
peas; Dose 0.0005, Day 1
  Sum of % necrosis in Pea: C (less than 50% necrosis)
peas; Dose 0.0005, Day 3
  Sum of % necrosis in Pea: B (50%-80% necrosis)
peas; Dose 0.0005, Day 7
  Sum of % necrosis in Pea: A (over 80% necrosis)
peas; Dose 0.0005, Day 10
  Sum of % necrosis in Pea: A (over 80% necrosis)
peas; Dose 0.0005, Day 14
  Sum of % necrosis in Pea: A (over 80% necrosis)
